Laboratory results as given in patent US6992215B2, “Thiol-based NAALADase inhibitors” (Guildford Pharmaceuticals Inc., priority 2001, dated 2006).

What was measured:
[1] = test system: BB/W diabetic rats; test: Progression of neuropathic pain and nerve conduction deficits in BB/W model; assay type: in vivo
Excerpt: Male BB/W rats (BRI, Mass) spontaneously develop a cell mediated autoimmune destruction of pancreatic B cells, resulting in onset of insulin-dependent (Type I) diabetes (Guberski 1994). […] This renders them valuable for experimental trials of new compounds for future treatments of this major disorder. In the present study, Compound D and Compound A were examined for their ability to alter the progression of diabetic neuropathy. […] Another group of non-diabetic rats also receiving vehicle were tested. All animals were continuously monitored for body weight, urine volume, blood sugar and glycated haemoglobin. In the first month of the study, all animals were tested for thermal nociception in a Hargreaves apparatus, weekly. After the first month this was done biweekly and then monthly. The testing consists of directing an infrared heat source onto the dorsal surface of the rat hindpaw and noting the time taken for the animal to remove its paw (see Hargreaves et al., supra, for a description of the experimental method). Each animal was tested 8 times and the mean withdrawal latency noted.
Nerve conduction velocity was also measured every two weeks through the first eight weeks of treatment and every month thereafter through to the six months of treatment (see De Koning et al., Peptides, Vol. 8, No. 3, pp. 415–22 (1987) for a description of the experimental method). […] This was apparent starting at 8 weeks of treatment and persisted to a similar degree through to the six month termination point of the study.

[2] = test system: STZ-diabetic rats; test: Diabetic neuropathy in STZ model (motor and sensory nerve conduction velocity); assay type: in vivo
Description: Motor and sensory nerve conduction velocity was also measured in STZ-diabetic animals after 4, 8 and 12 weeks of treatment (see De Koning et al., supra, for a description of the experimental method). Briefly, stimulating needle electrodes were inserted close to the sciatic and tibial nerves with recording electrodes being placed subcutaneously over the distal foot muscles, in anesthetized rats.

[3] = test system: STZ-diabetic rats; test: Reversal of diabetic neuropathy in STZ model, delayed dosing; assay type: in vivo; conditions: for neuropathic hyperalgesia (withdrawal latency difference scores) / motor nerve conduction velocity: daily p.o.; for neuropathic hyperalgesia (withdrawal latency difference scores): treatment started 5 weeks post STZ, within two weeks of treatment, FIG. 31; for motor nerve conduction velocity: within 8 weeks of dosing, persisted through 12 weeks, FIG. 32
Description: Rats (200 to 225 g) were injected with STZ (70 mg/kg) into the tail vein. Diabetes (>350 mg/dl) was confirmed in all rats, 4 weeks after STZ administration. Rats were left untreated until 35 to 49 days after STZ. Compound D (1, 3, or 10 mg/kg), Compound E (10 mg/kg), or vehicle were dosed daily p.o. following confirmation of hyperalgesia and/or nerve conduction velocity deficits. In separate experiments, onset of treatment was delayed until 60 to 90 days after STZ administration. Nerve conduction velocity or withdrawal response to thermal stimulation of hind paws was measured at intervals, usually bi-weekly for thermal response and monthly for nerve conduction velocity.
Sensory and motor nerve conduction velocities were evaluated using the method of De Koning and Gispen (Peptides 8: 415–422, 1987). Electrophysiological evaluation was carried out within one hour of dosing. Animals were anesthetized with isoflurane and stimulating needle electrodes were inserted close to the sciatic nerve at the sciatic notch and the tibial nerve near the ankle. Recording electrodes were placed over the foot muscles. Stimuli were applied and responses recorded. Motor and sensory nerve conduction velocities were calculated by measuring the distance between the sciatic notch and ankle sites, and the latency between the M-wave and the H-reflex.
Animals were acclimated to the apparatus for at least 5 min. An infra-red source was placed under below the plantar surface of the rat hind-paw. The intensity of the source was adjusted so that latency for normal rats was about 10 secs. Animals were tested for thermal response latency according to the method of Hargreaves et al (Pain 77–88, 1988). Each animal was tested 8 times (4 each hind limb) and the latency of response recorded automatically to nearest 0.1 sec. An average of the last 4 measurements for each paw was calculated (8 total measurements) and noted for each rat.

[4] = test system: STZ-induced diabetic rats; test: Neuropathic pain in STZ model (Hargreaves thermal nociception); assay type: in vivo, Sprague-Dawley rats; conditions: 10 mg/kg i.p. daily, treatment started 45 days post-STZ
Description: Male Sprague-Dawley rats (200–225 g) were rendered diabetic by intravenous administration of streptozotocin (“STZ”, 70 mg/kg in phosphate buffered saline). Diabetic animals were divided into five groups: one group receiving Compound A (10 mg/kg or 1 mg/kg), Compound D (10 mg/kg or 1 mg/kg) or vehicle. Another group of animals (non-STZ treated) served as non-diabetic controls. Drug/vehicle treatment was started in diabetic animals 45 days post-STZ administration. STZ-induced diabetic rats were tested for sensitivity to a heat source as soon as blood glucose levels rose to 320 mg/dl or above (30 days post STZ). The rats were then acclimated to a Hargreaves apparatus and thermal nociception was monitored using an infrared heat source directed into the dorsal surface of the hindpaw, and the time taken for the animal to remove its paw noted to the nearest 0.1 seconds (see Hargreaves et al., supra, for detailed experimental method). The intensity of the beam source was adjusted such that the mean latency for control animals (non-STZ treated) was approximately 10 seconds. Each animal was tested 8 times and the mean difference score (between mean non-diabetic control latency and mean diabetic latency) are graphically presented in FIGS. 7A and 7B.

[5] = test system: chronic constrictive injury-induced rats; test: Neuropathic pain in CCI model (sciatic nerve ligation, thermal hyperalgesia); assay type: in vivo; conditions: 50, 30, 10, 3, 1 or 0.3 mg/kg for 12 (or 15) days after sciatic nerve ligation, FIGS. 17-22
Description: Sciatic nerve ligation, consisting of 4 ligatures tied loosely around the sciatic nerve at 1 mm intervals proximal to the nerve trifurcation, was performed on rats. […] The rats were habituated to a Hargreaves apparatus. An infrared heat source was directed onto the dorsal surface of each rat's hindpaws and the time taken for the rat to withdraw its paws was noted. The difference in scores between the latency of the response for the paw on the operated side versus the paw on the unoperated control side was determined.
The rats were treated with either Compound 49 (10, 1 or 0.1 mg/kg) or a vehicle for 15 days after sciatic nerve ligation. Thermal pain responses were measured at days 0, 1, 5, 8, 11 and 15. The differences in scores for the rats treated with a vehicle and the rats treated with Compound 49 are graphically presented in FIGS. 13-15.
The rats were treated with either Compound 5 (50, 30, 10, 3, 1 or 0.3 mg/kg) or a vehicle for 12 (or 15) days after sciatic nerve ligation. Thermal pain responses were measured at days 0, 1, 5, 8 and 12 (and 15). The differences in scores for the rats treated with a vehicle and the rats treated with Compound 5 are graphically presented in FIGS. 17-22.
The rats received either Compound C (50 mg/kg i.p. daily) or a vehicle starting 10 days post surgery. […] Normal (unoperated) rats had approximately equal latencies for both paws. This effect was significant starting at 11 days of drug treatment and persisted through to the end of the study (for 21 days of daily dosing).

[6] = test system: cortical cell cultures; test: In Vitro Assay on Ischemia (glutamate toxicity after potassium cyanide / 2-deoxyglucose insult); assay type: cell-based; conditions: concentration required to cause a 50% reduction in glutamate toxicity following an ischemic insult
Description: To examine the in vitro effect of the inventive compounds on ischemia, cortical cell cultures were treated with various compounds of this invention during an ischemic insult utilizing potassium cyanide and 2-deoxyglucose, and for one hour thereafter. For a description of the experimental method used, see Vornov et al., J. Neurochem., Vol. 65, No. 4, pp. […] (1995).

| Structure (SMILES) | nerve conduction velocity deficits versus diabetic vehicle controls ([1]; 10 mg/kg daily, from 8 weeks to six months of treatment, FIG. 12) | withdrawal latency versus diabetic vehicle-treated rats ([1]; 10 mg/kg i.p. daily, starting after 4 weeks and through six months of treatment, FIG. 11) | treatment time after which increase of motor and sensory nerve conduction velocities was significant ([2]; 10 mg/kg treatment group) [weeks] | motor and sensory nerve conduction velocities versus diabetic controls ([2]; either dose (10 mg/kg or 1 mg/kg), FIGS. 10A and 10B) | neuropathic hyperalgesia (withdrawal latency difference scores) [3] | motor nerve conduction velocity [3] | motor nerve conduction ([3]; lower doses 1 and 3 mg/kg, treatment 7 weeks post STZ, even 8 weeks after dosing) | sensory nerve conduction ([3]; lower doses 1 and 3 mg/kg, treatment 7 weeks post STZ, within 4 weeks of treatment) | neuropathic pain abnormalities ([3]; lower doses 1 and 3 mg/kg, treatment initiated 7 weeks post STZ, FIG. 34) | sensory and motor nerve conduction velocity deficits ([3]; rats left untreated until 60 days after STZ, external CRO, FIGS. 37 and 38) | hyperalgesic response (withdrawal latency difference score) [4] | difference in scores between the operated and unoperated paws [5] | EC50 [6] [nM] |
| --- | --- | --- | --- | --- | --- | --- | --- | --- | --- | --- | --- | --- | --- |
| O=C(O)CCC(CCS)C(=O)O (stereo not drawn) [Compound D, 2-(2-sulfanylethyl)pentanedioic acid] | significantly less severe nerve conduction deficits | longer withdrawal latencies | 12 | increased both motor and sensory nerve conduction velocities | reversed towards normal | reversed the motor nerve conduction velocity towards normal | remained unimproved | significantly improved towards normal | Significant reduction in pain abnormalities | Partial reversal of both deficits | completely reversed |  |  |
| O=C(O)c1cccc(CC(CCCS)C(=O)O)c1 (stereo not drawn) [Compound 5, 3-carboxy-alpha-(3-mercaptopropyl)-benzenepropanoic acid] |  |  |  |  | reversed towards normal | reversed the motor nerve conduction velocity towards normal |  |  |  |  |  | normalized the difference in scores | 6.5 |
